Test results: patent EP2969029B1, “USE OF COSMETICALLY OR DERMATOLOGICALLY SAFE SUBSTITUTED MICHAEL ACCEPTORS FOR THE PREVENTION, REDUCTION OR PROPHYLAXIS OF THE TYROSINASE ACTIVITY OF THE HUMAN SKIN AND/OR THE LIGHTENING OF THE HUMAN SKIN” (Beiersdorf AG, priority 2013, dated 2014)
pEC50: −log10 of the molar value.

Biological target: T1, humane Tyrosinase (Homo sapiens, UniProt P14679)
T1 sequence (P14679 19-529): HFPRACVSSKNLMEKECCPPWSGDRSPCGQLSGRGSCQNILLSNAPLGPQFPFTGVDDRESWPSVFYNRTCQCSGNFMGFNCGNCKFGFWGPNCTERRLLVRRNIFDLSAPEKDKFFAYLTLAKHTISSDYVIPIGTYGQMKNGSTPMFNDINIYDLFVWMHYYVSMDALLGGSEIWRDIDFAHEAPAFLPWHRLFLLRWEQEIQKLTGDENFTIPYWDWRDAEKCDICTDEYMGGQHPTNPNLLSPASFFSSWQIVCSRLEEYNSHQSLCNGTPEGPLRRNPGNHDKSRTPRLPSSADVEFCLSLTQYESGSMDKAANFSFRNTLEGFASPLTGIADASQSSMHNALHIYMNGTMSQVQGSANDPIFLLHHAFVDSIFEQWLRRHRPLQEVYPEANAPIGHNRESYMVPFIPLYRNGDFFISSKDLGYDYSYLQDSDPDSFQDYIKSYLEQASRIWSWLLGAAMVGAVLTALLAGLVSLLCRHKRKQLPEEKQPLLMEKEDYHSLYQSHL
Test: Enzyme test: conversion of L-DOPA to L-dopaquinone by human tyrosinase, MBTH detection, absorption at 490 nm
Assay type: biochemical
Conditions: Inhibition der Tyrosinaseaktivität, substrate L-DOPA

Row | Compound | pEC50
1 | CC1CCC(=CC(=O)O)CC1 (stereo not shown) [2-(4-Methyl-1-cyclohexyliden)essigsäure] | 2.18
2 | COc1ccc(C(=O)O)c(O)c1 [2-Hydroxy-4-methoxy Benzoesäure] | 2.58
3 | O=C(O)/C=C/c1c[nH]c2ccccc12 [(E)-3-(1H-indol-3-yl)acrylsäure] | 3.08
4 | O=C(O)/C=C/c1ccc(O)c(O)c1 [(E)-3-(3,4-dihydroxyphenyl)acrylsäure] | 2.86
5 | O=C(O)/C=C/c1ccco1 [(E)-3-(furan-2-yl)acrylsäure] | 3.78
6 | O=C(O)/C=C/c1cccnc1 [(E)-3-(pyridin-3-yl)acrylsäure] | 3.20
7 | O=C(O)/C=C/c1ccncc1 [(E)-3-(pyridin-4-yl) acrylsäure] | 3.16
8 | O=C(O)c1ccccc1 [Natrium Benzoat] | 2.84
9 | O=CC=Cc1ccccc1 [Zinnamaldehyd] | 3.68
10 | COc1cc(/C=C/C(=O)O)ccc1O [trans-Ferulasäure] | 2.65

Now from value to molecule:

Row | pEC50 | Compound
11 | 3.31 | CCCc1c[nH]c(=S)[nH]c1=O [5-Propyl-2-thioxo-2,3-dihydropyrimidin-4(1H)-on]
12 | 4.49 | O=C(O)/C=C/c1cccs1 [(E)-3-(thiophen-2-yl)acrylsäure]
13 | 3.29 | O=C(/C=C/c1ccc(O)cc1)NCCc1c[nH]c2ccc(O)cc12 [(E)-N-(2-(5-hydroxy-1H-indol-3-yl)ethyl)-3-(4-hydroxyphenyl)acrylamid]
14 | 2.81 | COc1ccc(C(=O)/C=C(\O)c2ccc(C(C)(C)C)cc2)cc1 [(Z)-3-(4-(tert-butyl)phenyl)-3-hydroxy-1-(4-methoxyphenyl)prop-2-en-1-on]
15 | 2.63 | C=CCOC(=O)C=Cc1ccccc1 [Allyl cinnamat]
16 | 3.42 | O=C(OCc1ccccc1)c1ccccc1O [Benzyl 2-hydroxybenzoat]
17 | 3.00 | O=C(OCc1ccccc1)c1ccccc1 [Benzyl benzoat]
18 | 3.59 | O=C(C=Cc1ccccc1)OCc1ccccc1 [Benzyl cinnamat]
19 | 3.26 | O=C(OC1CCCCC1)c1ccccc1O [Cyclohexyl 2-hydroxybenzoat]
20 | 2.59 | CCOC(=O)C=Cc1ccccc1 [Ethyl cinnamat]
21 | 2.37 | CCCCCCOC(=O)c1ccccc1O [Hexyl 2-hydroxybenzoat]
22 | 3.45 | COc1ccc(C=CC(=O)OCCC(C)C)cc1 [Isoamyl p-Methoxycinnamat]
23 | 2.82 | C/C=C/C=C/C(=O)O [Kaliumsorbat]
24 | 2.61 | COC(=O)c1cc(O)ccc1O [Methyl 2,5-Dihydroxybenzoat]
25 | 2.58 | C=COC(=O)C=Cc1ccccc1 [Vinyl cinnamat]
